This is an account of results in ChEMBL document CHEMBL1150603, “Ecteinascidins 770 and 786 from the Thai tunicate Ecteinascidia thurstoni” (J Nat Prod, 2002).

One test concerns KB. In words: Cytotoxicity against human KB cells. Format: functional, cell-based.
For test [1], the system named is Mycobacterium tuberculosis. In words: Antitubercular activity against Mycobacterium tuberculosis H37Ra. Format: functional.
Test [2] can be described thus: Cytotoxicity against breast cancer cells. As to conditions: Cancer cell lines. The format is functional, cell-based.

pIC50: −log10 of the molar value. Values after ≈ are worked out from the molar mass of the structure shown.

In general, pIC50 refers to the IC50 on a negative log10 scale, so that one unit is a factor of ten. Read a low pIC50 as a high IC50. The MIC is the least concentration at which growth counts as inhibited. A high value points to a less susceptible organism.

On to `COc1cc2c(cc1O)CCN[C@]21CS[C@@H]2c3c(OC(C)=O)c(C)c4c(c3[C@H](COC1=O)N1[C@@H]2[C@H]2c3c(cc(C)c(OC)c3O)C[C@@H]([C@@H]1C#N)N2C)OCO4` [ECTEINASCIDIN 770], for which the negative logarithm of the IC50 (pIC50) in the test with KB is 10.47; in test [2], 8.60. In addition, the lowest concentration to inhibit growth in test [1] (MIC) was 0.13 µM (≈ 0.1 µg/mL).
The like results for `COc1cc2c(cc1O)CCN[C@]21C[S+]([O-])[C@@H]2c3c(OC(C)=O)c(C)c4c(c3[C@H](COC1=O)N1[C@@H]2[C@@H]2c3c(cc(C)c(OC)c3O)C[C@@H]([C@@H]1C#N)N2C)OCO4` (stereo partly specified) [ECTEINASCIDIN 786] were, in that order, 9.82, 8.12 and 2 µM (≈ 1.57 µg/mL).
